Source: ChEMBL document CHEMBL3244202, “Synthesis and analgesic-antiinflammatory activity of some 4- and 5-substituted heteroarylsalicylic acids” (J Med Chem, 1978)
In brackets after ≈: the same amount, converted by molar mass.

Assays:
Rattus norvegicus [1] = test: Antiinflammatory activity in po dosed rat assessed as inhibition of carrageenan-induced paw edema; assay type: functional
[2] = Aqueous solubility of the compound in phosphate buffer at pH 7; assay type: physicochemical
Rattus norvegicus [3] = test: Analgesic activity in po dosed rat by hyperesthesia test; assay type: functional
Rattus norvegicus [4] = test: Antipyretic activity in po dosed rat administered on days 17 to 20 measured on day 20; settings: 480 h
Rattus norvegicus [5] = test: Gastrointestinal toxicity in rat assessed as gastric hemorrhage administered on days 17 to 20 measured on day 20; assay type: organism-based, Stomach; settings: in vivo
Rattus norvegicus [6] = test: Antiinflammatory activity in po dosed rat assessed as reduction in adjuvant arthritis-induced lesion administered on days 17 to 20 post adjuvant arthritis-challenge measured on day 20; assay type: functional; settings: 480 h
Canis familiaris = test: Antiinflammatory activity in po dosed dog assessed as reduction in urate synovitis measured after 2 hrs; assay type: functional; settings: Canis lupus familiaris
Rattus norvegicus [7] = test: Antiinflammatory activity in po dosed Wistar rat assessed as reduction in adjuvant arthritis-induced lesion administered on days -1 through 1 measured on days 0 and 14
Rattus norvegicus [8] = test: Antiinflammatory activity in po dosed rat assessed as reduction in adjuvant arthritis-induced lesion administered for 1 to 14 days measured on day 14; assay type: functional
Homo sapiens = organism: Homo sapiens; test: Inhibition of prostaglandin synthetase (unknown origin)
Rattus norvegicus [9] = test: Antipyretic activity in po dosed rat assessed as dose required to produce drop in body temperature of 1 degC administered on days 17 to 20 measured on day 20; assay type: functional; settings: 480 h

Compound | ED50 (Rattus norvegicus [1]) [mg/kg] | further results
O=C(O)c1cc(-c2cccnc2)ccc1O | > 250 | –
O=C(O)c1cc(-n2nccn2)ccc1O | 150 | –
O=C(O)c1cc(-c2nccs2)ccc1O | > 250 | –
O=C(O)c1cc(-c2ncc[nH]2)ccc1O | 200 | –
O=C(O)c1ccc(-c2cscn2)cc1O | 70 | solubility [2]: 8700 µg/mL (≈ 39.3 mM); ED50 (Rattus norvegicus [3]): > 80 mg/kg
O=C(O)c1cc(-c2ncco2)ccc1O | 100 | solubility [2]: 6000 µg/mL (≈ 29.2 mM)
O=C(O)c1cc(-c2ccncn2)ccc1O | > 200 | –
O=C(O)c1cc(-c2ccno2)ccc1O | 110 | –
O=C(O)c1cc(-c2ncccn2)ccc1O | 100 | solubility [2]: 6000 µg/mL (≈ 27.8 mM)
O=C(O)c1ccccc1O [SALICYLIC ACID] | 200 | ED50 (Rattus norvegicus [3]): > 150 mg/kg
O=C(O)c1cc(-c2cscn2)ccc1O | 95 | solubility [2]: 2700 µg/mL (≈ 12.2 mM); ED50 (Rattus norvegicus [3]): 90 mg/kg
O=C(O)c1cc(-c2cccs2)ccc1O | 60 | solubility [2]: 7000 µg/mL (≈ 31.8 mM)
O=C(O)c1cc(-n2cccn2)ccc1O | 200 | –
O=C(O)c1cc(-c2c[nH]cn2)ccc1O | 100 | solubility [2]: 1100 µg/mL (≈ 5.39 mM)
O=C(O)c1ccc(-c2ncco2)cc1O | > 250 | –
O=C(O)c1cc(-c2cocn2)ccc1O | 110 | –
O=C(O)c1cc(C2N=NN=N2)ccc1O | 110 | solubility [2]: 1700 µg/mL (≈ 8.25 mM)

Compound | ED50 (Rattus norvegicus [1]) [mg/kg] | further results
CC(=O)Oc1ccccc1C(=O)O [ASPIRIN] | 90 | ED50 (Rattus norvegicus [4]): 43 mg/kg; ED50 (Rattus norvegicus [3]): 90 mg/kg; ED50 (Rattus norvegicus [5]): 16 mg/kg; ED50 (Rattus norvegicus [6]): 25 mg/kg; ED50 (Canis familiaris): 68 mg/kg; ED50 (Rattus norvegicus [7]): 46 mg/kg; ED50 (Rattus norvegicus [8]): 33 mg/kg; ID50 (Homo sapiens): 5 µg/mL (≈ 0.0278 mM)
O=C(O)c1cc(-c2ccns2)ccc1O | 80 | solubility [2]: 7300 µg/mL (≈ 33 mM); ED50 (Rattus norvegicus [3]): > 80 mg/kg
O=C(O)c1cc(-c2cnco2)ccc1O | > 200 | –
O=C(O)c1cc(-n2cnnc2)ccc1O | > 250 | –
O=C(O)c1cc(-n2cncn2)ccc1O | 200 | –
O=C(O)c1ccc(-n2cccc2)cc1O | 200 | –
O=C(O)c1cc(-c2cncs2)ccc1O | > 200 | –
O=C(O)c1cc(-c2ccc(F)cc2F)ccc1O [DIFLUNISAL] | 9.8 | ED50 (Rattus norvegicus [3]): 4.6 mg/kg
O=C(O)c1cc(-n2cccc2)ccc1O | 50 | solubility [2]: 8600 µg/mL (≈ 42.3 mM); ED50 (Rattus norvegicus [3]): 30 mg/kg; ED50 (Rattus norvegicus [5]): > 800 mg/kg; ED10 (Rattus norvegicus [9]): 401 mg/kg; ED50 (Rattus norvegicus [6]): 35 mg/kg; ED50 (Canis familiaris): 39 mg/kg; ED50 (Rattus norvegicus [7]): 58 mg/kg; ED50 (Rattus norvegicus [8]): 64 mg/kg; ID50 (Homo sapiens): 0.3 µg/mL (≈ 0.00148 mM)
O=C(O)c1cc(-n2ccnn2)ccc1O | 150 | –
O=C(O)c1cc(-n2ccnc2)ccc1O | 75 | solubility [2]: 2000 µg/mL (≈ 9.8 mM); ED50 (Rattus norvegicus [3]): 65 mg/kg
O=C(O)c1cc(-c2cc[nH]n2)ccc1O | > 250 | –
CC(=O)Oc1ccc(-n2cccc2)cc1C(=O)O | 42 | ED50 (Rattus norvegicus [3]): 35 mg/kg
O=C(O)c1cc(-c2csnn2)ccc1O | > 200 | –
O=C(O)c1cc(-c2ccccn2)ccc1O | 200 | –
CCCCOC(=O)Oc1ccc(-n2cccc2)cc1C(=O)O | 52 | ED50 (Rattus norvegicus [3]): 38 mg/kg
O=C(O)c1ccc(-c2nccs2)cc1O | 110 | –
